Paper PMC8173608, “Probing the Catalytic Mechanism and Inhibition of SAMHD1 Using the Differential Properties of Rp- and Sp-dNTPαS Diastereomers” (Biochemistry, 2021)

Each compound was assayed against T1, SAMHD1 (Homo sapiens, UniProt Q9Y3Z3) (assay: coupled enzyme assay (Ppx1/MDCC-PBP), competitive inhibition of TTP hydrolysis).
T1 construct: wt-SAMHD1(1–626)
Assay type: biochemical

T1 sequence (Q9Y3Z3 whole entry): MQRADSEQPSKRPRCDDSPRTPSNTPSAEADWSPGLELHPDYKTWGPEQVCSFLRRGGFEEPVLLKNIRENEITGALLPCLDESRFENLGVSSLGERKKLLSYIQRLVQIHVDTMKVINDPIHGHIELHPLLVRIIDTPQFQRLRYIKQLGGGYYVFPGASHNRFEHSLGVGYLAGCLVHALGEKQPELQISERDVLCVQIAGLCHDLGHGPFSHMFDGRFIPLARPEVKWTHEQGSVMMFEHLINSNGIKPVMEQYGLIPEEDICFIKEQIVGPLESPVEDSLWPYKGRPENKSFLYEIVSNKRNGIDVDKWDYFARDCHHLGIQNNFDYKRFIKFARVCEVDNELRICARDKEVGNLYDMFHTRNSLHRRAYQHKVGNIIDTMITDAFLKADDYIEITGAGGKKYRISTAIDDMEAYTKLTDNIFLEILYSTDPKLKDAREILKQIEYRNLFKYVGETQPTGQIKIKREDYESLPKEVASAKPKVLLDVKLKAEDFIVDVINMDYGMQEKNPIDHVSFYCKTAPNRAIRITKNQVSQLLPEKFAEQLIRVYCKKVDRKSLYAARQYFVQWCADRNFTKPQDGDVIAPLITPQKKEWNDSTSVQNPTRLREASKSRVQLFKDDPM

Compared with `Nc1ccn([C@H]2C[C@H](O)[C@@H](CO[P@](O)(=S)OP(=O)(O)OP(=O)(O)O)O2)c(=O)n1` [Sp-dCTPαS], `Nc1nc2c(ncn2[C@H]2C[C@H](O)[C@@H](CO[P@](O)(=S)OP(=O)(O)OP(=O)(O)O)O2)c(=O)[nH]1` [Sp-dGTPαS] is 7.7-fold lower in Ki: 6.3 ± 0.4 µM for the first, 0.82 ± 0.05 µM for the second. The second binds more tightly here.

First: Cc1cn([C@H]2C[C@H](O)[C@@H](CO[P@](O)(=S)OP(=O)(O)OP(=O)(O)O)O2)c(=O)[nH]c1=O [Sp-TTPαS]
Second: Nc1ncnc2c1ncn2[C@H]1C[C@H](O)[C@@H](CO[P@](O)(=S)OP(=O)(O)OP(=O)(O)O)O1 [Sp-dATPαS]
The Ki of the first is 2.5-fold lower: 46 ± 2 µM for the first, 117 ± 7 µM for the second.
